According to patent US12351580B2, “NLRP3 modulators” (Innate Tumor Immunity, Inc., priority 2017, dated 2025):

How the values were obtained:
TLR7 = target: T1, TLR7 (Homo sapiens, UniProt Q9NYK1); test: In vitro human TLR7 binding reporter assay (HEK-Blue, NF-kB/AP1-inducible SEAP); type: cell-based
T1 construct: host or cells: HEK-Blue cells (human HEK) co-expressing TLR7 and an NF-kB/AP1-inducible SEAP reporter
T1 sequence (Q9NYK1 27-1049): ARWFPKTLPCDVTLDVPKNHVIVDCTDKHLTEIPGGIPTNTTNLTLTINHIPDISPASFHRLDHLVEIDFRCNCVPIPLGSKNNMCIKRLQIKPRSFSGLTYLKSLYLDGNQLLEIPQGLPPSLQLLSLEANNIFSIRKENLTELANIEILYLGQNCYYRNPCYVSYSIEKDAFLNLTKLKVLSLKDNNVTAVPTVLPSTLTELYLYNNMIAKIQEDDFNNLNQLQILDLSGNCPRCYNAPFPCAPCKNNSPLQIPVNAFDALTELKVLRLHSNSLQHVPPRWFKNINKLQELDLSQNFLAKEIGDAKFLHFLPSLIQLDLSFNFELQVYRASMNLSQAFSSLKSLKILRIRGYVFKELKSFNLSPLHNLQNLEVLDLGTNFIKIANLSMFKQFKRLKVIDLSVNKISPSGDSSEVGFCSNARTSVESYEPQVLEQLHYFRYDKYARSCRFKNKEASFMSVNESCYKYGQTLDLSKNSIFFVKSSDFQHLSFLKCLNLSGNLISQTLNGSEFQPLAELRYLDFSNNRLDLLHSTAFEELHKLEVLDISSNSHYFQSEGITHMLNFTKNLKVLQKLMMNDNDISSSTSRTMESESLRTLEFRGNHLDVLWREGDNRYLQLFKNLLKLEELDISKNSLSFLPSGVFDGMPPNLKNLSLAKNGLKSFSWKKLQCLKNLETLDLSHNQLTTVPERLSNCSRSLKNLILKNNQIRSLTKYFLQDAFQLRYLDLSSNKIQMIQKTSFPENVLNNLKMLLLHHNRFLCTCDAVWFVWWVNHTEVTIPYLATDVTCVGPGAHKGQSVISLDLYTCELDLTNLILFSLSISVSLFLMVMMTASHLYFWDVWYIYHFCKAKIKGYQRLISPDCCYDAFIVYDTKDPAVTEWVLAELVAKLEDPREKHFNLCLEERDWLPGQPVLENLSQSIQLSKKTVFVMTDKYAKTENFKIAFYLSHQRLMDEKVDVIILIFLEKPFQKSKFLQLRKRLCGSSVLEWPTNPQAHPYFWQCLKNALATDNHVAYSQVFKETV
Method in brief: (§1)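 Reporter cells are plated at 15,000 per well and rested 24 h. Next day, test compounds or DMSO are dispensed, followed by 18 h incubation at 37 °C, 5% CO2.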

TLR8 = target: T2, TLR8 (Homo sapiens, UniProt Q9NR97); test: In vitro human TLR8 binding reporter assay (HEK-Blue, NF-kB/AP1-inducible SEAP); type: cell-based
T2 construct: host or cells: HEK-Blue cells (human HEK) co-expressing TLR8 and an NF-kB/AP1-inducible SEAP reporter
T2 sequence (Q9NR97 27-1041): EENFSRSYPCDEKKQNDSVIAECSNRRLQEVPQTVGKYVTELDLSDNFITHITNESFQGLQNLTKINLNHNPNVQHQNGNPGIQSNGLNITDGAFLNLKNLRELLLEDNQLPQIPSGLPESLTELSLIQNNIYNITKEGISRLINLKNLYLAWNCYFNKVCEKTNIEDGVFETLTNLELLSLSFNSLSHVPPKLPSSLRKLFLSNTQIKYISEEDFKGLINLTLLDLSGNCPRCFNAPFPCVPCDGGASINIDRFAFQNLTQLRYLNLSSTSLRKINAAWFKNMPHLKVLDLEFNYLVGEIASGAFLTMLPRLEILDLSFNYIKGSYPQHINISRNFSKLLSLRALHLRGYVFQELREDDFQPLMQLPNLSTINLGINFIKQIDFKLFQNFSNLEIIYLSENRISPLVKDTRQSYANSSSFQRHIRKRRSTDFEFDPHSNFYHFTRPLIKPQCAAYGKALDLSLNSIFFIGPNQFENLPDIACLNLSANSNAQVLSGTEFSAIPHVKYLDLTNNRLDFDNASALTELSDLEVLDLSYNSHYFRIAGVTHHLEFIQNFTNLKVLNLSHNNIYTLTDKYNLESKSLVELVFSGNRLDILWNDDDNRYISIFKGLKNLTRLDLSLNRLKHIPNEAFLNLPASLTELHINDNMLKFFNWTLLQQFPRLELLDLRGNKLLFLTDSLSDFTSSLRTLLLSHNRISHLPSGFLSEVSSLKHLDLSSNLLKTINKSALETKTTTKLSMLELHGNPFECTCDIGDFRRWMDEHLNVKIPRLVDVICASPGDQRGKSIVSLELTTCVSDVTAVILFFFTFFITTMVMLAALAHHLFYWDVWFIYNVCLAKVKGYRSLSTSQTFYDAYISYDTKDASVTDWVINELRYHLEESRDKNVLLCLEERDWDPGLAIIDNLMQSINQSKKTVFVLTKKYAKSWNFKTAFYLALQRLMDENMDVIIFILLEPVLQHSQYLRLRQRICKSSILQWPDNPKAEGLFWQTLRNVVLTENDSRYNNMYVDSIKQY
Method in brief: as §1

Structure (SMILES) | EC50 (TLR7; activity range symbols) | EC50 (TLR8; activity range symbols) | EC50 (TLR7; numeric bounds) | EC50 (TLR8; numeric bounds)
CN(Cc1nc2c(N)nc3cc(-c4cc[nH]n4)ccc3c2[nH]1)C(=O)CO [Compound 370] | > 100 µM | > 100 µM |  | 
CN(Cc1nc2c(N)nc3cc(-c4cc[nH]n4)ccc3c2[nH]1)C(=O)CN [Compound 372] | > 100 µM | > 100 µM |  | 
CN(C)C(=O)N(C)Cc1nc2c(N)nc3cc(-c4cc[nH]n4)ccc3c2[nH]1 [Compound 375] | > 100 µM | > 100 µM |  | 
CN(Cc1nc2c(N)nc3cc(-c4cc[nH]n4)ccc3c2[nH]1)C(=O)c1ccccc1 [Compound 376] | > 100 µM | > 100 µM |  | 
CN(Cc1nc2c(N)nc3cc(-c4cc[nH]n4)ccc3c2[nH]1)C(=O)c1nccs1 [Compound 377] | > 100 µM | > 100 µM |  | 
CCN(C=O)Cc1nc2c(N)nc3cc(-c4cc[nH]n4)ccc3c2[nH]1 [Compound 379] | > 100 µM | > 100 µM |  | 
CCN(Cc1nc2c(N)nc3cc(-c4cc[nH]n4)ccc3c2[nH]1)C(=O)CN(C)C [Compound 383] | > 100 µM | > 100 µM |  | 
CCN(Cc1nc2c(N)nc3cc(-c4ccn(C)n4)ccc3c2[nH]1)C(=O)OC(C)(C)C [Compound 393] | > 100 µM | > 100 µM |  | 
CCN(Cc1nc2c(N)nc3cc(-c4ccsc4)ccc3c2[nH]1)C(=O)OC(C)(C)C [Compound 397] | > 100 µM | > 100 µM |  | 
CCNCc1nc2c(N)nc3cc(-n4cccn4)ccc3c2[nH]1 [Compound 398] | > 100 µM | > 100 µM |  | 
CCNCc1nc2c(N)nc3cc(-c4cccs4)ccc3c2[nH]1 [Compound 399] | > 100 µM | > 100 µM |  | 
CCNCc1nc2c(N)nc3cc(-c4ccsc4)ccc3c2[nH]1 [Compound 400] | > 100 µM | > 100 µM |  | 
CNCc1nc2c(N)nc3cc(-c4cc[nH]n4)ccc3c2[nH]1 [Compound 401] | > 100 µM | > 100 µM |  | 
CNCc1nc2c(N)nc3cc(-n4cccn4)ccc3c2[nH]1 [Compound 402] | > 100 µM | > 100 µM |  | 
COc1ccc(Cn2c(CN3CCN(C)C3=O)nc3c(N)nc4cc(-c5cc[nH]n5)ccc4c32)cc1 [Compound 403] | > 100 µM | > 100 µM |  | 
COc1ccc(Cn2c(CN3C(=O)OCC3COCc3ccccc3)nc3c(N)nc4cc(-c5cc[nH]n5)ccc4c32)cc1 (centres unmarked) [Compound 404] | > 100 µM | > 100 µM |  | 
COC(=O)N(C)Cc1nc2c(N)nc3cc(-c4cc[nH]n4)ccc3c2[nH]1 [Compound 405] | > 100 µM | > 100 µM |  | 
CCN(Cc1nc2c(N)nc3cc(-c4cc[nH]n4)ccc3c2[nH]1)C(=O)OC [Compound 406] | > 100 µM | > 100 µM |  | 
Nc1nc2cc(-c3cc[nH]n3)ccc2c2[nH]c(CN3C[C@@H](c4ccccc4)CC3=O)nc12 [Compound 407] | > 100 µM | > 100 µM |  | 

Structure (SMILES) | EC50 (TLR7; activity range symbols) | EC50 (TLR8; activity range symbols) | EC50 (TLR7; numeric bounds) | EC50 (TLR8; numeric bounds)
Nc1nc2cc(-c3cc[nH]n3)ccc2c2[nH]c(CN3C[C@H](c4ccccc4)CC3=O)nc12 [Compound 408] | > 100 µM | > 100 µM |  | 
COc1ccc(Cn2c(CN3C(=O)OCC3c3ccccc3)nc3c(N)nc4cc(-c5cc[nH]n5)ccc4c32)cc1 (centres unmarked) [Compound 409] | > 100 µM | > 100 µM |  | 
COc1ccc(Cn2c(Cn3cnccc3=O)nc3c(N)nc4cc(-c5cc[nH]n5)ccc4c32)cc1 [Compound 414] | > 100 µM | > 100 µM |  | 
CCN(Cc1nc2c(N)nc3cc(-c4cc[nH]n4)ccc3c2[nH]1)C(=O)C1COC1 [Compound 417] | > 100 µM | > 100 µM |  | 
CCN(Cc1nc2c(N)nc3cc(-c4ccsc4)ccc3c2[nH]1)C(C)=O [Compound 419, N-((4-Amino-7-(thiophen-3-yl)-1H-imidazo[4,5-c]quinolin-2-yl)methyl)-N-ethylacetamide] | > 100 µM | > 100 µM |  | 
CCN(Cc1nc2c(N)nc3cc(-c4cc[nH]n4)ccc3c2n1C)C(=O)OC(C)(C)C [Compound 420] | > 100 µM | > 100 µM |  | 
CCN(Cc1nc2c(N)nc3cc(-c4ccc(C)cc4)ccc3c2[nH]1)C(C)=O [Compound 422] |  |  | > 10 µM | > 10 µM
Nc1nc2cc(-n3cccn3)ccc2c2[nH]c(CN3CCCCC3=O)nc12 [Compound 423] | > 100 µM | > 100 µM |  | 
CCN(Cc1nc2c(N)nc3cc(-c4cncc(F)c4)ccc3c2[nH]1)C(C)=O [Compound 427] | > 100 µM | > 100 µM |  | 
CCN(Cc1nc2c(N)nc3cc(Br)ccc3c2n1CC(C)C)C(C)=O [Compound 430] | > 100 µM |  |  | > 10 µM
CCN(Cc1nc2c(N)nc3cc(Br)ccc3c2n1CCCOC)C(C)=O [Compound 431] | > 100 µM |  |  | > 10 µM
N#Cc1ccc(-c2ccc3c(c2)nc(N)c2nc(CN4CCCC4=O)[nH]c23)cc1 [Compound 434] |  |  | > 30 µM | > 30 µM
CCOC(=O)N(CC)Cc1nc2c(N)nc3cc(-c4cc[nH]n4)ccc3c2[nH]1 [Compound 436, Ethyl N-{[4-amino-7-(1H-pyrazol-3-yl)-1H-imidazo[4,5-c]quinolin-2-yl]methyl}-N-ethylcarbamate] |  |  | > 50 µM | > 50 µM
CCN(Cc1nc2c(N)nc3cc(-c4cc[nH]n4)ccc3c2[nH]1)C(=O)Cc1cccc(C)c1 [Compound 437, N-{[4-amino-7-(1H-pyrazol-3-yl)-1H-imidazo[4,5-c]quinolin-2-yl]methyl}-N-ethyl-2-(3-methylphenyl)acetamide] | > 100 µM | > 100 µM |  | 
CCN(Cc1nc2c(N)nc3cc(-c4cc[nH]n4)ccc3c2[nH]1)C(=O)c1cccnc1 [Compound 438, N-{[4-amino-7-(1H-pyrazol-3-yl)-1H-imidazo[4,5-c]quinolin-2-yl]methyl}-N-ethylpyridine-3-carboxamide] | > 100 µM | > 100 µM |  | 
CCN(Cc1nc2c(N)nc3cc(-c4cc[nH]n4)ccc3c2[nH]1)C(=O)c1ccccn1 [Compound 439, N-{[4-amino-7-(1H-pyrazol-3-yl)-1H-imidazo[4,5-c]quinolin-2-yl]methyl}-N-ethylpyridine-2-carboxamide] | > 100 µM | > 100 µM |  | 
CCN(Cc1nc2c(N)nc3cc(-c4cc[nH]n4)ccc3c2[nH]1)C(=O)CC(C)(C)O [Compound 440, N-{[4-amino-7-(1H-pyrazol-3-yl)-1H-imidazo[4,5-c]quinolin-2-yl]methyl}-N-ethyl-3-hydroxy-3-methylbutanamide] | > 100 µM | > 100 µM |  | 
CCN(Cc1nc2c(N)nc3cc(-c4cc[nH]n4)ccc3c2[nH]1)C(=O)c1ccc(OC)cc1 [Compound 441, N-{[4-amino-7-(1H-pyrazol-3-yl)-1H-imidazo[4,5-c]quinolin-2-yl]methyl}-N-ethyl-4-methoxybenzamide] | > 100 µM |  |  | > 62 µM
